Test system: genetically sound-sensitive mice (audiogenic seizures)
Test: audiogenic seizures test in sound-susceptible mice
Format: in vivo
Details: Mus musculus, ip, 1 h; dose producing 50% protection against clonic convulsions relative to control; intraperitoneally 60 minutes before induction of audiogenic seizures (90 dB, 10–20 kHz, 30 seconds); Probit Analysis; read-out: Clonic Convulsion (ED50)
Source text: The potent activity of the compounds of formula (I) or (II), or their pharmaceutically acceptable salts, as anticonvulsants was evidenced by audiogenic seizures test induced in sound-susceptible mice. These examples illustrate the invention without in any way limiting its scope. The objective of the following pharmacological test is to evaluate the anticonvulsant potency of a compound in sound-susceptible mice, a genetic animal model with reflex seizures. In this model of primary generalised epilepsy, seizures are evoked without electrical or chemical stimulation and the seizure types are, at least in part, similar in their clinical phenomenology to seizures occurring in man (Löscher W. & Schmidt D., Epilepsy Res. (1998), 2, p. 145–181; Buchhalter J. R., Epilepsia (1993), 34, S31–S41). The results obtained with the tested compounds of formula (I) and (II) show a strong pharmacological effect (see Table 4).
In order to study the activity of the compounds of formula (I) and (II) including the (S) and (R) forms of ethyl 4-{[1-(aminocarbonyl)propyl]amino}butanoate, as anticonvulsant, the applicant performed out a series of experiments based on the audiogenic seizures test in mice.
The objective of the following pharmacological test is to evaluate the anticonvulsant potency of a compound in sound-susceptible mice, a genetic animal model with reflex seizures. In this model of primary generalised epilepsy, seizures are evoked without electrical or chemical stimulation and the seizure types are, at least in part, similar in their clinical phenomenology to seizures occurring in man (Löscher W. and Schmidt D., Epilepsy Res. (1998), 2, p. 145–181; Buchhalter J. R., Epilepsia (1993), 34, S31–S41).
Male or female genetically sound-sensitive mice (14–28 g; N=10), derived from a DBA (Dilute Brown Agouti) strain originally selected by Dr. Lehmann of the Laboratory of Acoustic Physiology (Paris) and bred in the UCB Pharma Sector husbandry unit since 1978, were used. The experimental design consisted of several groups, one group receiving the vehicle control and the other groups different doses of the test-compound. The compounds were administered intraperitoneally 60 minutes before the induction of audiogenic seizures.
For testing, the animals were placed in small cages, one mouse per cage, in a sound-attenuated chamber. After a period of orientation of 30 seconds, the acoustic stimulus (90 dB, 10–20 kHz) was delivered for 30 seconds via loud speakers positioned above each cage; During this interval, the mice were observed and the presence of the 3 phases of the seizure activity, namely wild running, clonic and tonic convulsions, was recorded. The proportion of mice protected against wild running, clonic and tonic convulsions, respectively, was calculated.
For active compounds, an ED50 value, i.e. the dose producing 50% protection relative to the control group, together with 95% confidence limits, was calculated using a Probit Analysis (SAS/STATR Software, Version 6.09, PROBIT procedure) of the proportions of protected mice for each of the 3 phases of the seizure activity.

CCCCOC(=O)CCCN[C@@H](CC)C(N)=O [K, butyl 4-{[(1S)-1-(aminocarbonyl)propyl]amino}butanoate]
ED50: 1000 µmol/kg

CCC(NCCCC(=O)OC(C)(C)C)C(N)=O [H, tertiobutyl 4-{[(1S)-1-(aminocarbonyl)propyl]amino}butanoate]
ED50: 520 µmol/kg

CCCC(CCC)COC(=O)CCCN[C@@H](CC)C(N)=O [O, 2-propylpentyl 4-{[(1S)-1-(aminocarbonyl)propyl]amino}butanoate]
ED50: 120 µmol/kg

CCCOC(=O)CCCN[C@@H](CC)C(N)=O [P, propyl 4-{[(1S)-1-(aminocarbonyl)propyl]amino}butanoate]
ED50: 200 µmol/kg

CCOC(=O)CCCN[C@@H](CC)C(N)=O [D, ethyl 4-{[(1S)-1-(aminocarbonyl)propyl]amino}butanoate]
ED50: 68 µmol/kg

CC[C@H](NCCCC(=O)OCC(C)C)C(N)=O [M, isobutyl 4-{[(1S)-1-(aminocarbonyl)propyl]amino}butanoate]
ED50: 360 µmol/kg

CC[C@H](NCCCC(=O)OCCC12CC3CC(CC(C3)C1)C2)C(N)=O [I, 2-(1-adamantyl)ethyl 4-{[(1S)-1-(aminocarbonyl)propyl]amino}butanoate]
ED50: 130 µmol/kg

CC[C@H](NCCCC(=O)OC)C(N)=O [F, methyl 4-{[(1S)-1-(aminocarbonyl)propyl]amino}butanoate]
ED50: 160 µmol/kg

CCCCCCCCOC(=O)CCCN[C@@H](CC)C(N)=O [L, octyl 4-{[(1S)-1-(aminocarbonyl)propyl]amino}butanoate]
ED50: 160 µmol/kg

CC[C@H](NCCCC(=O)SC(C)C)C(N)=O [W, S-isopropyl 4-{[(1S)-1-(aminocarbonyl)propyl]amino}butanethioate]
ED50: 540 µmol/kg

CC[C@H](NCCCC(=O)OCc1ccccc1)C(N)=O [Compound N, benzyl 4-{[(1S)-1-(aminocarbonyl)propyl]amino)butanoate]
ED50: 220 µmol/kg

CC[C@H](NCCCC(=O)OC1CCCC1)C(N)=O [J, cyclopentyl 4-{[(1S)-1-(aminocarbonyl)propyl]amino}butanoate]
ED50: 340 µmol/kg

CCOC(=O)CCCNC(CC)C(N)=O (racemic) [C, ethyl 4-{[1-(aminocarbonyl)propyl]amino}butanoate]
ED50: 320 µmol/kg

CC[C@H](NCCCC(=O)OC(C)C)C(N)=O [G, isopropyl 4-{[(1S)-1-(aminocarbonyl)propyl]amino}butanoate]
ED50: 150 µmol/kg

— US7112612B2, “N-alkylated GABA compounds, processes for their preparation and their use as medicaments” (UCB S.A., priority 2000, dated 2006)
